According to US20250312493A1, “FLUOROPHORE-LOADED GELATIN-BASED NANOPARTICLES FOR NEAR-INFRARED IMAGING” (The Board of Trustees of the University of Illinois, priority 2022, published 2025):

Tests used:
[1] = Fluorescence intensity at various ICG concentrations in PBS (IVIS); type: physicochemical; conditions: 0.05 μM-100 μM ICG
Procedure: GNP I or GNP II dispersed in 1 ml of ICG in DI-H2O, with a GNP-to-ICG weight ratio of 20, were incubated for 2 hours at 25° C. The resulting suspension was centrifuged (13,000 rpm/5 min) to discard free ICG in the supernatant. The fluorescence intensity of naked ICG (ICG-free), ICG-loaded GNP I (ICG-GNP I) and GNP II (ICG-GNP II) at various ICG concentrations was recorded and quantified using an In Vivo Imaging System (IVIS, Perkin Elmer, Waltham, MA, USA) (ex 740/em 800 nm).

[2] = Fluorescence intensity of blood after intravenous administration; type: in vivo, healthy nude mice; conditions: 24-hour post-administration, equivalent to 2 mg/kg ICG
Procedure: Healthy nude mice were administered with either 100 μl PBS solutions of ICG-free or ICG-GNP I (equivalent to 2 mg/kg ICG) intravenously via retro-orbital injection. 100 μl of blood was collected from the lateral tail vein immediately and 24 hours after the administration, transferred to a 96-well plate, and analyzed their fluorescence intensity using the IVIS (n=3).

[3] = tested on: 4T1 tumor; assay: In vivo NIR fluorescence imaging, tumor to background ratio; set-up: species or system mice
Procedure: Animal tumor model: Female immunodeficient mice (J:NU, 2 months old, average body weight 25 g) were purchased from the Jackson Laboratory (Bar Harbor, Maine, USA). Animal study was performed in strict accordance with the recommendations in the Guide for the Care and Use of Laboratory Animals of the National Institutes of Health. Breast cancer xenograft was established by the orthotopic administration of 100 μl 4T1 cell solution (10^6 cells per injection) at the mammary fat pad of the second nipple of the left side of each mouse using a 27G½ needle. Anesthesia was maintained by mask inhalation of 1.5-2.0% isoflurane throughout the procedure.
In vivo and ex vivo NIR fluorescence (NIRF) imaging: When the tumor area reached 10 mm^2 within 14 days, nine tumor-bearing mice were administered with ICG, ICG-GNP I or ICG-GNP II, i.e., three mice for each probe, […] The mice administered with ICG-GNP II were imaged using a bioinspired imaging sensor developed for NIRF image-guided surgery. At each time point, the fluorescence from the primary tumor and surrounding tissues (background) of mice under 2% isoflurane were recorded at 37° C. as regions of interest using the IVIS. A ratio between the mean fluorescence from the tumor and background was assessed and expressed as a TBR. […] The fluorescence intensity of each organ or tissue was acquired using the IVIS and bioinspired imaging sensor.

ICG concentration above which MFI decreases [1]: above 50 μM
ICG concentration at which MFI reaches a peak [1]: 10 µM
fluorescence of blood samples [2]: minimal fluorescence
Compound: CC1(C)C(/C=C/C=C/C=C/C=C2\N(CCCCS(=O)(=O)O)c3ccc4ccccc4c3C2(C)C)=[N+](CCCCS(=O)(=O)[O-])c2ccc3ccccc3c21 [ICG-free, indocyanine green]
differences in MFI between the tumor and background ([3]; 1 mg/kg dose): no measurable differences
TBR (tumor to background ratio) ([3]; during a 24-hour period, 2 mg/kg dose, IVIS): ~1.5
